Row | SMILES | melting point
1 | CCOc1ccc2[nH]c(=O)n(C3CCOCC3)c2c1 | 155 °C
2 | Cc1nc(NC(=O)Cc2ccsc2)c(Br)c(C)c1Br | 157 °C
3 | Cc1nc2c3c(ccn2c1C)C(O)CC(c1ccsc1)N3 (stereo not drawn) | 192 to 194 °C
4 | COc1cc(Cc2cnc(NCCSCc3ncccc3Br)[nH]c2=O)ccn1 | 70 to 72 °C
5 | Nc1ccc(CP2(=O)OCCCCO2)cc1 | 128 to 129 °C
6 | CC(=O)Nc1ncc(Sc2nnc(C)s2)s1 | 242 to 244 °C
7 | Clc1ccc2c(c1Cl)C=NCC2 | 196 to 200 °C
8 | CC(C)(C)c1nnc(NC(=O)CC(=O)CBr)s1 | 128 to 130 °C
9 | COc1ccc(Cl)cc1C(=O)NCC1CCOc2cc(OC)c(S(N)(=O)=O)cc21 (stereo not drawn) | 202 °C
10 | Cc1c(C=CCN2CCOCC2)[nH]c(=O)c2c1ccc1nc(Nc3c(Cl)cccc3Cl)n(C)c12 | 175 to 177 °C
11 | CCOC(=O)C1=Cc2cc(F)c(Cl)cc2N(Cc2ccccc2)C1 | 211 to 212 °C
12 | CCc1ccc2c(n1)C(C(N)=S)CCC2 (stereo not drawn) | 73 to 75 °C
13 | Cc1ccc(C)n1Nc1ccc(Cl)nn1 | 173 to 175 °C
14 | CCN(CC)C(=O)c1ccoc1-c1ccc(Cl)cc1 | 64 to 66 °C
15 | Cc1nc(N)c(C#N)c(NCc2cncc(Br)c2)n1 | 283 to 284 °C
16 | COc1cc2oc(=O)c(CCO)c(C)c2c(OC)c1OC | 95 to 97 °C
17 | O=C(NC(=O)c1cc(F)c(F)cc1Cl)Nc1ccc(C(=O)O)cc1OC(F)(F)F | 236 °C
18 | O=C(O)c1cc(S)cc2c1OCCO2 | 191 to 192 °C
19 | CC1(C)OC(=O)Nc2ccc(-c3ccccc3F)cc21 | 164 to 165 °C
20 | Cc1nccc2c3ccc(OCCC(C)C)cc3n(CCC(C)C)c12 | 106 °C
21 | OCc1cccc2c1ccn2-c1ccnc(N[C@H]2CC[C@H](O)CC2)n1 | 212 to 213 °C
22 | NC(=O)N(O)C[C@H]1C[C@@H](c2ccc(C(F)(F)F)cc2)C1 | 144 to 146 °C
23 | Cc1cccc(Cl)c1NC(=S)Nc1c(C)nn(C)c1C | 201 to 202 °C
24 | COc1cc(OCCN2CCOCC2)c(C=O)cc1-c1cccs1 | 130 to 131 °C
25 | CCCCCC1C=CC(c2ccc(Br)cc2)=CC1 (stereo not drawn) | 74 °C
26 | COc1cccc(NC(=O)NC2N=C(c3ccccc3)c3cccc(C)c3N(C)C2=O)c1 (stereo not drawn) | 215 to 217 °C

Row | SMILES | melting point
27 | CCOc1ccc(C2=NN(C3CCCCC3)C(=O)[C@H]3CC=CC[C@@H]23)cc1OCC (relative stereo) | 147 to 148 °C
28 | COc1cc(Nc2c(C#N)cnc3cc(-c4ccc(CNCCS(C)(=O)=O)o4)ccc23)c(Cl)cc1Cl | 171 to 174 °C
29 | ClCc1cccc(-c2nnn[nH]2)c1 | 152 to 154 °C
30 | O=C(CCc1cnn2c(=O)[nH]cnc12)NCCCN1CCCC1=O | 180 to 181 °C
31 | CN1CC(C)(CCCl)Oc2ncccc2C1=S (stereo not drawn) | 119 to 121 °C
32 | CCn1cc(-c2ccc3c(c2)c(C2CCN(CCN4CCNC4=O)CC2)cn3-c2ccc(F)cc2)nn1 | 132 to 134 °C
33 | CCCCCCCCCCCCCCCCc1ccc(S(=O)(=O)Nc2nncs2)cc1 | 118 to 119 °C
34 | CC(C)(C)c1cc(O)c(N)c([N+](=O)[O-])c1 | 180 to 181 °C
35 | COc1ccc(-c2nc(Cn3cncn3)nc3cc(OC)c(OC)cc23)cc1 | 206 to 207 °C
36 | CSc1nc(-c2ccc(F)cc2)nc(-c2ccccn2)n1 | 158 °C
37 | Cc1cccc2c1C(=O)C(CO)(CO)CS2 | 138 to 142 °C
38 | CC(=O)N1CCc2sc(C)c(C(=O)CCCN3CCC(c4noc5cc(F)ccc45)CC3)c2C1 | 116 to 118 °C
39 | Cn1c(=O)c(-c2c(Cl)cccc2Cl)cc2cnc(NCc3ccccn3)nc21 | 198 to 201 °C
40 | COc1cc(C2CC(=O)NC(=O)C2)cc2c(C)c(C)oc12 | 220 to 222 °C
41 | CCCCOc1ccc2[nH]c(C(=O)O)cc2c1 | 153 °C
42 | CCCCC1(CCCC)NC(c2nc(-c3ccccc3)cs2)Cc2c1[nH]c1ccccc21 (stereo not drawn) | 134 to 136 °C
43 | Clc1ccc2c(c1)CCc1cccnc1C2N1CCNCC1 (single isomer, unassigned; (+)) | 153 to 155 °C
44 | CCOC(=O)c1nn(-c2ccc(C=O)cc2)nc1C | 97 to 99 °C
45 | Cc1ccc2c(c1)c(CCC(=O)O)c1n2C(=O)CCC1 | 152 to 153 °C
46 | Fc1ccc(C(c2ccc(Cl)cc2Cl)C(F)n2cncn2)cc1 (stereo not drawn) | 96 to 104 °C
47 | COCCOCCCCC(=O)c1ccc(Br)cc1 | 25.5 to 26.5 °C
48 | CS(=O)(=O)Nc1ccc2ncnc(N)c2c1 | 287 to 290 °C
49 | Cc1nc(S(=O)(=O)Cc2ccccc2)nc(C)c1Br | 138 to 139 °C
50 | OCc1c(C(F)(F)F)[nH]c2ccccc12 | 106 °C
51 | O=Cc1ncc2n1-c1ccc(Cl)cc1C(c1ccccc1F)=NC2 | 182 to 183 °C

Now from value to molecule:

Row | melting point | SMILES
52 | 232 to 237 °C | Nc1cc(C(=O)O)cc(S(N)(=O)=O)c1-c1ccccc1
53 | 123 to 124 °C | COCCNC(=O)c1cccc(-c2ccc(F)c3cc(Cc4cccc(C(F)(F)F)c4)sc23)c1
54 | 105 to 110 °C | Cc1c(-c2ccc(O)cc2)n(Cc2ccc(OCCN3CCCC3)cc2)c2ccc(O)cc12
55 | 190 to 197 °C | Cn1c(=O)c(-c2ccccc2Cl)cc2cnc(NC3C4CN(C(=O)Nc5ccc(CC(=O)O)cc5)CC43)nc21 (stereo not drawn)
56 | 155 to 160 °C | ON=Cc1ccc(OCc2coc(-c3ccc(C(F)(F)F)cc3)n2)cc1
57 | 179 to 180 °C | COc1ccc(-n2ccc(=O)c(-c3ccnn3-c3ccccc3)n2)cc1
58 | 137 to 139 °C | Cc1ccc(S(=O)(=O)N(C(=O)OC(C)(C)C)[C@@H]2CCCC[C@H]2N)cc1
59 | 235 to 236 °C | Cc1nc2cc(S(=O)(=O)n3c(CCC(=O)O)cc4cc(C(F)(F)F)ccc43)ccc2s1
60 | 135 to 138 °C | Cc1noc(NS(=O)(=O)c2ccc(NC(=O)CN)cc2-c2ccc(CC(C)C)cc2)c1C
61 | 87 °C | C=CC(=O)OCCCCCCOc1ccc(C(=O)OCCOCC2(c3ccccc3)C=CC=CC2C=Cc2ccc(OCCCCCC)cc2)cc1 (stereo not drawn)
62 | 120 to 122 °C | Cc1ccc(C2(c3ccc(C)cc3)OC(=O)N3CCN(C(=O)Nc4ccc(F)cc4F)CC32)cc1 (stereo not drawn)
63 | 118 °C | CC(C)(C)OC(=O)Nc1ccc(C#Cc2cccc(C#Cc3ccc(NC(=O)OC(C)(C)C)cc3)c2C(=O)O)cc1
64 | 233 to 237 °C | O=[N+]([O-])c1ccc(-c2ccc(-c3ccc([N+](=O)[O-])cc3OCc3ccccc3)o2)c(OCc2ccccc2)c1
65 | 168 to 169 °C | CC(C)(C)OC(=O)Nc1ccsc1C(=O)O
66 | 163 °C | O=c1nc(-c2ccnc(-c3ccccc3)c2)sc2ccccc12
67 | 68 to 69 °C | C[N+](C)([O-])CC#CC1=Cc2ccccc2Sc2ccc(Cl)cc21
68 | 105 to 106 °C | CCOC(=O)CN(C=C(C(=O)OCC)C(=O)OCC)N=Cc1ccccc1
69 | 132 to 133 °C | O=C(O)c1cc(Oc2ccc(Cl)cc2Cl)ccc1Br
70 | 169 to 171 °C | Cc1cccc(C)c1N(CCCc1cccnc1)C(=O)CC(C)N1C(=O)c2ccccc2C1=O (stereo not drawn)
71 | 214 to 215 °C | CC(C)n1nc(-c2cnc(N)nc2-c2ccccc2)ccc1=O
72 | 185 to 189 °C | CC(C)C(=O)N1CC(OCc2ccccc2)C(OCc2ccccc2)C(OCc2ccccc2)C1COCc1ccccc1 (stereo not drawn)
73 | 153 to 155 °C | CCOC(=O)C1=C(C)NC(=S)N(C(=O)OCC)C1c1ccccc1OCc1ccccc1 (stereo not drawn)
74 | 171 to 174 °C | O=C(c1ccc(-c2ccccc2)nc1)N1Cc2cccn2Cc2ccccc21
75 | 192 °C | O=C(Nc1ccccc1S(=O)(=O)c1ccccc1)N[C@@H](Cc1ccc(Nc2nccc3cnccc23)cc1)C(=O)O

Row | melting point | SMILES
76 | 153 to 154 °C | CS(=O)(=O)c1ccc(-c2sc(CCc3ccccc3)nc2-c2ccc(F)cc2)cc1
77 | 122 to 124 °C | COc1ccc2cccc(C(=O)CNC(C)=O)c2c1
78 | 97 to 99 °C | CCC1=C(c2cccc(C(F)(F)F)c2)n2ncc(C#N)c2N(C(=O)CN2CCN(Cc3ccccc3)CC2)C1
79 | 167 to 168 °C | COc1ccc2c(c1)N(C)C(=O)N(c1ccc(Cl)cc1)S2(=O)=O
80 | 153 to 158 °C | Cc1oncc1C(=O)Nc1ccc(-n2nc(C3CC3)cc2C2CC2)cc1
81 | 209 to 211 °C | CC(=O)c1ccc(N2CCN(C(=O)c3c(Cl)ccc([N+](=O)[O-])c3Cl)CC2)c(F)c1
82 | 121 to 122 °C | Cc1ccc(S(=O)(=O)Sc2cc(C)c(CO)cc2C(C)(C)C)cc1
83 | 166 to 167 °C | c1ccc(-c2nc3cc(-c4nc(COc5ccc(CCCn6ccnc6)cc5)co4)ccc3o2)cc1
84 | 206 to 208 °C | CC(C(=O)O)c1ccc2oc(Nc3ccc(Cl)cc3)nc2c1 (stereo not drawn)
85 | 218 to 220 °C | Cc1ccccc1-c1cnc2c(C(F)(F)F)cccc2c1-c1cccc(NC(=O)Nc2ccccc2F)c1
86 | 90 to 100 °C | Cc1cnc(-c2ccc(-c3ccccc3S(=O)(=O)Nc3onc(C)c3C)cc2)o1
87 | 84 to 87 °C | COC(=O)CCC(=O)c1cc(NC(C)=O)ccc1OCC1CO1 (stereo not drawn)
88 | 131 to 133 °C | OCCc1c[nH]c(-c2ccccc2OCc2ccccc2)n1
89 | 106 to 108 °C | CC(C)(C)C(=O)CC(=O)c1cccc(C(=O)CC(=O)C(C)(C)C)c1
90 | 87 to 89 °C | O=C(Nc1ccccc1-c1ccccc1)OCCCC(=O)c1ccccc1
91 | 205 to 206 °C | CC(=O)C1=C(O)C(=C(C)Nc2ccc(Cl)cc2)C(=O)OC1=O
92 | 244 to 248 °C | CCc1cc2c(cc1F)c(S(C)(=O)=O)c(-c1ccc(S(=O)(=O)NC(C)(C)C)cn1)n2-c1ncccn1
93 | 140 °C | O=C(CCl)NCCCn1cc(-c2ccccc2)c2ccccc2c1=O
94 | 235 to 237 °C | O=C1OC2(C=C1c1ccccc1)C=C(c1ccccc1)C(=O)O2
95 | 94 to 95 °C | COc1cc(CCCn2ccnc2)ccc1OCc1coc(-c2cccs2)n1
96 | 254 to 256 °C | O=C(c1ccc(Br)cc1)c1cc(Br)c(C(=O)c2ccc(Br)cc2)cc1Br
97 | 138 to 140 °C | CCOC(=O)NC(=O)C(C#N)=CNc1c(C)cccc1C
98 | 139 to 142 °C | CC(C)(C)OC(=O)Nc1cc(COC2CCCCO2)c(-c2ccc(F)cc2)cc1N (stereo not drawn)

— a melting point compilation (Tetko et al.; mined from patent text by program, amines drawn as free bases though some values may be those of a salt)
